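Exposure lasted 48 hours, with cells grown in 96-well plates and compounds tested at five concentrations. Abbreviation: GI50, concentration required for 50% inhibition of growth. TGI: total growth inhibition.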
Tests used:
Assay in all cases: inhibition of tumour cell growth, NCI panel, 48 h
786-0 renal = system: 786-0 renal
A498 renal = system: A498 renal
A549 NSCLC = system: A549 NSCLC
ACHN renal = system: ACHN renal
BT-549 breast = system: BT-549 breast
CAKI-1 renal = system: CAKI-1 renal
CCRF-CEM leukemia = system: CCRF-CEM leukemia
COLO 205 colon = system: COLO 205 colon
DU-145 prostate = system: DU-145 prostate
EKVX NSCLC = system: EKVX NSCLC
HCC-2998 colon = system: HCC-2998 colon
HCT-116 colon = system: HCT-116 colon
HCT-15 colon = system: HCT-15 colon
HL-60(TB) leukemia = system: HL-60(TB) leukemia
HOP-62 NSCLC = system: HOP-62 NSCLC
HOP-92 NSCLC = system: HOP-92 NSCLC
HS 578T breast = system: HS 578T breast
HT29 colon = system: HT29 colon
IGROV1 ovarian = system: IGROV1 ovarian
K-562 leukemia = system: K-562 leukemia
KM12 colon = system: KM12 colon
LOX IMVI melanoma = system: LOX IMVI melanoma
M14 melanoma = system: M14 melanoma
MALME-3M melanoma = system: MALME-3M melanoma
MDA-MB-231 breast = system: MDA-MB-231 breast
MDA-MB-435 = system: MDA-MB-435
MOLT-4 leukemia = system: MOLT-4 leukemia
NCI-H460 lung = system: NCI-H460 lung
NCI-H522 lung = system: NCI-H522 lung
NCI/ADR-RES ovarian = system: NCI/ADR-RES ovarian
OVCAR-3 ovarian = system: OVCAR-3 ovarian
OVCAR-4 ovarian = system: OVCAR-4 ovarian
OVCAR-5 ovarian = system: OVCAR-5 ovarian
OVCAR-8 ovarian = system: OVCAR-8 ovarian
PC-3 prostate = system: PC-3 prostate
RPMI-8226 leukemia = system: RPMI-8226 leukemia
RXF 393 renal = system: RXF 393 renal
SF-268 CNS = system: SF-268 CNS
SF-295 CNS = system: SF-295 CNS
SF-539 CNS = system: SF-539 CNS
SK-MEL-2 melanoma = system: SK-MEL-2 melanoma
SK-MEL-28 melanoma = system: SK-MEL-28 melanoma
SK-MEL-5 melanoma = system: SK-MEL-5 melanoma
SK-OV-3 ovarian = system: SK-OV-3 ovarian
SN12C renal = system: SN12C renal
SNB-19 CNS = system: SNB-19 CNS
SNB-75 CNS = system: SNB-75 CNS
SW-620 colon = system: SW-620 colon
T-47D breast = system: T-47D breast
TK-10 renal = system: TK-10 renal
U251 CNS = system: U251 CNS
UACC-257 melanoma = system: UACC-257 melanoma
UACC-62 melanoma = system: UACC-62 melanoma
UO-31 renal = system: UO-31 renal

## Cc1cc2ncc(-c3cc4ccccc4c(N4CCN(C)CC4)n3)nc2cc1C
786-0 renal
  GI50: 1.68 µM
  TGI: 3.57 µM
A498 renal
  GI50: 16.1 µM
  TGI: 31.6 µM
A549 NSCLC
  GI50: 81.6 µM
  TGI: > 100 µM
ACHN renal
  GI50: 2.14 µM
  TGI: 4.45 µM
BT-549 breast
  GI50: 14 µM
  TGI: 29.2 µM
CAKI-1 renal
  GI50: 1.62 µM
  TGI: 3.12 µM
CCRF-CEM leukemia
  GI50: 2.22 µM
  TGI: 5.93 µM
COLO 205 colon
  GI50: 1.87 µM
  TGI: 3.52 µM
DU-145 prostate
  GI50: 6.53 µM
  TGI: > 100 µM
EKVX NSCLC
  GI50: 33.7 µM
  TGI: > 100 µM
HCC-2998 colon
  GI50: 1.69 µM
  TGI: 3.2 µM
HCT-116 colon
  GI50: 1.67 µM
  TGI: 3.09 µM
HCT-15 colon
  GI50: 1.82 µM
  TGI: 3.6 µM
HL-60(TB) leukemia
  GI50: 1.55 µM
  TGI: 3.56 µM
HOP-62 NSCLC
  GI50: 21.2 µM
  TGI: 79.5 µM
HOP-92 NSCLC
  GI50: 2.42 µM
  TGI: 15.9 µM
HS 578T breast
  GI50: 12.7 µM
  TGI: 39.2 µM
HT29 colon
  GI50: 1.63 µM
  TGI: 3.29 µM
IGROV1 ovarian
  GI50: 4.81 µM
  TGI: 61.2 µM
K-562 leukemia
  GI50: 1.82 µM
  TGI: 3.57 µM
KM12 colon
  GI50: 2.34 µM
  TGI: 5.47 µM
LOX IMVI melanoma
  GI50: 1.81 µM
  TGI: 3.34 µM
M14 melanoma
  GI50: 1.75 µM
  TGI: 3.21 µM
MALME-3M melanoma
  GI50: 1.75 µM
  TGI: 3.42 µM
MDA-MB-231 breast
  GI50: 2.98 µM
  TGI: 10.3 µM
MDA-MB-435
  GI50: 1.79 µM
  TGI: 3.36 µM
MOLT-4 leukemia
  GI50: 2.32 µM
  TGI: 5.27 µM
NCI-H460 lung
  GI50: 1.87 µM
  TGI: 3.45 µM
NCI-H522 lung
  GI50: 11.6 µM
  TGI: 28.9 µM
NCI/ADR-RES ovarian
  GI50: 5.76 µM
  TGI: > 100 µM
OVCAR-3 ovarian
  GI50: 10.3 µM
  TGI: > 100 µM
OVCAR-4 ovarian
  GI50: 5.62 µM
  TGI: > 100 µM
OVCAR-5 ovarian
  GI50: 8.87 µM
  TGI: 49.2 µM
OVCAR-8 ovarian
  GI50: 2.83 µM
  TGI: 8.57 µM
PC-3 prostate
  GI50: 5.37 µM
  TGI: > 100 µM
RPMI-8226 leukemia
  GI50: 2.19 µM
  TGI: 5.33 µM
RXF 393 renal
  GI50: 2.01 µM
  TGI: 4.8 µM
SF-268 CNS
  GI50: 13.2 µM
  TGI: 55 µM
SF-295 CNS
  GI50: 14.2 µM
  TGI: 31.6 µM
SF-539 CNS
  GI50: 1.87 µM
  TGI: 3.98 µM
SK-MEL-2 melanoma
  GI50: 16 µM
  TGI: 31.2 µM
SK-MEL-28 melanoma
  GI50: 1.74 µM
  TGI: 3.19 µM
SK-MEL-5 melanoma
  GI50: 12.8 µM
  TGI: 29.4 µM
SK-OV-3 ovarian
  GI50: 36.6 µM
  TGI: > 100 µM
SN12C renal
  GI50: 6.07 µM
  TGI: 65.8 µM
SNB-19 CNS
  GI50: 20.2 µM
  TGI: 89.8 µM
SNB-75 CNS
  GI50: 11 µM
  TGI: 24 µM
SW-620 colon
  GI50: 1.85 µM
  TGI: 3.41 µM
T-47D breast
  GI50: 3.59 µM
  TGI: 15.4 µM
TK-10 renal
  GI50: 20 µM
  TGI: 44.1 µM
U251 CNS
  GI50: 2.11 µM
  TGI: 4.91 µM
UACC-257 melanoma
  GI50: 12.8 µM
  TGI: 26.4 µM
UACC-62 melanoma
  GI50: 1.89 µM
  TGI: 3.89 µM
UO-31 renal
  GI50: 4.35 µM
  TGI: 17.2 µM
